This is an account of results in US7163952B2, “Azole compound and medicinal use thereof” (Japan Tobacco Inc., priority 2001, dated 2007).

Where a name gives a salt, the structure may show the parent alone.

Take `O=C(O)c1ccc(Nc2nc(-c3cc(Cl)ccc3OCc3ccccc3)cs2)c(OCCC2CCCCC2)c1` [Example 150, 4-(4-(2-benzyloxy-5-chlorophenyl)-2-thiazolylamino)-3-(2-cyclohexylethoxy)benzoic acid]: the melting point was 230 °C (dec.). The compound `CN(Cc1ccc(C(C)(C)C)cc1)c1ccc(-c2csc(N(C)Cc3ccc(C(=O)O)cc3)n2)cc1` [Example 233, 4-((N-(4-(4-(N-(4-tert-butylbenzyl)-N-methylamino)phenyl)-2-thiazolyl)-N-methylamino)methyl)benzoic acid] had a melting point of 166 to 167 °C.

Take `CN(c1ccc(C(=O)O)cc1)c1nc(-c2ccc(OCc3ccc(Cl)c(Cl)c3)cc2)cs1` [Example 89, 4-(N-(4-(4-(3,4-dichlorobenzyloxy)phenyl)-2-thiazolyl)-N-methylamino)benzoic acid]: the melting point was 230 °C (dec.). Under `CN(c1ccc(C(=O)[O-])cc1)c1nc(-c2ccc(NCc3ccc(C4CCCCC4)cc3)cc2)cs1.[Na+]` [Example 263, sodium 4-(N-(4-(4-(4-cyclohexylbenzylamino)phenyl)-2-thiazolyl)-N-methylamino)benzoate] stands 260 °C; under `CN(Cc1ccc(C(=O)O)cc1)c1nc(-c2ccc(CN3CCN(Cc4ccccc4)CC3)cc2)cs1` [Example 240, 4-((N-(4-(4-(4-benzyl-1-piperazinylmethyl)phenyl)-2-thiazolyl)-N-methylamino)methyl)benzoic acid], 130 to 135 °C. `O=C(O)c1ccc(Nc2nc(-c3ccc(NC(=O)c4ccc(C5CCCCC5)cc4)cc3)cs2)cc1` [Example 6, 4-(4-(4-(4-cyclohexylbenzoylamino)phenyl)-2-thiazolylamino)benzoic acid]: the melting point is 250 °C (dec.).

`COCCN(c1ccc(C(=O)O)cc1)c1nc(-c2ccc(OCc3ccc(Cl)c(Cl)c3)cc2)cs1` [Example 99, 4-(N-(4-(4-(3,4-dichlorobenzyloxy)phenyl)-2-thiazolyl)-N-(2-methoxyethyl)amino)benzoic acid] returned a melting point of 175 to 178 °C. `CC(C)c1ccc(COc2ccc(Cl)cc2-c2csc(N(CCC3CCCCC3)c3ccc(C(=O)O)cc3)n2)cc1` [Example 176, 4-(N-(4-(5-chloro-2-(4-isopropylbenzyloxy)phenyl)-2-thiazolyl)-N-(2-cyclohexylethyl)amino)benzoic acid]: the melting point lay in the range of 190 to 192 °C. `CN(Cc1ccc(C(=O)OCOC(=O)C(C)(C)C)cc1)c1nc(-c2ccc(OCc3ccc(C4CCCCC4)cc3)cc2)cs1` [Example 268, 2,2-dimethylpropionyloxymethyl 4-((N-(4-(4-(4-cyclohexylbenzyloxy)phenyl)-2-thiazolyl)-N-methylamino)methyl)benzoate] gave a melting point of 88 to 90 °C. Compound `CN(Cc1ccc(Cl)c(Cl)c1)c1ccc(-c2csc(N(Cc3ccc(C(=O)O)cc3)CC3CCCCC3)n2)cc1` [Example 118, 4-((N-cyclohexylmethyl-N-(4-(4-(N-(3,4-dichlorobenzyl)-N-methylamino)phenyl)-2-thiazolyl)amino)methyl)benzoic acid] registered a melting point of 125 to 127 °C.

With `CC(C)N(Cc1ccc(C(=O)O)cc1)c1nc(-c2ccc(N(Cc3ccccc3)Cc3ccccc3)cc2)cs1` [Example 109, 4-((N-(4-(4-dibenzylaminophenyl)-2-thiazolyl)-N-isopropylamino)methyl)benzoic acid], the melting point lay within 144 to 146 °C. As to `CN(CCCc1ccccc1)c1ccc(-c2csc(N(C)Cc3ccc(C(=O)O)cc3)n2)cc1` [Example 225, 4-((N-methyl-N-(4-(4-(N-methyl-N-(3-phenylpropyl)amino)phenyl)-2-thiazolyl)amino)methyl)benzoic acid], the melting point was 127 to 128 °C. In the case of `CN(CCCCc1ccccc1)c1ccc(-c2csc(N(C)Cc3ccc(C(=O)O)cc3)n2)cc1` [Example 222, 4-((N-methyl-N-(4-(4-(N-methyl-N-(4-phenylbutyl)amino)phenyl)-2-thiazolyl)amino)methyl)benzoic acid], the melting point was 146 to 147 °C. In the case of `CC(C)N(c1ccc(C(=O)O)c(Cl)c1)c1nc(-c2ccc(NC(=O)c3ccc(N4CCOCC4)cc3)cc2)cs1.Cl`, the melting point was 220 °C (dec.). Under `O=C(O)c1ccc(Nc2nc(-c3cccc(OCc4ccc(C5CCCCC5)cc4)c3)cs2)cc1` [Example 138, 4-(4-(3-(4-cyclohexylbenzyloxy)phenyl)-2-thiazolylamino)benzoic acid] stands 235 to 236 °C; under `O=C(O)c1ccc(N(CC2CCCCC2)c2nc(-c3nc4ccc(OCc5ccc(C(F)(F)F)cc5C(F)(F)F)cc4o3)cs2)cc1` [Example 189, 4-(N-(4-(6-(2,4-bis(trifluoromethyl)benzyloxy)-2-benzooxazolyl)-2-thiazolyl)-N-cyclohexylmethylamino)benzoic acid], 213 to 214 °C. Under `O=C(O)c1ccc(Nc2nc(-c3ccc(OCc4ccc(-c5ccccc5)cc4)cc3)cs2)cc1` [Example 95, 4-(4-(4-(4-biphenylylmethoxy)phenyl)-2-thiazolylamino)benzoic acid] stands 230 °C (dec.); under `CCN(c1ccc(C(=O)O)cc1)c1nc(-c2ccc(NC(=O)C3CCCCC3)cc2)cs1` [Example 11, 4-(N-(4-(4-(cyclohexanecarbonylamino)phenyl)-2-thiazolyl)-N-ethylamino)benzoic acid], 250 °C (dec.). The compound `CN(c1ccc(C(=O)O)cc1)c1nc(-c2ccc(NCc3ccc(Cl)c(Cl)c3)cc2)cs1` [Example 128, 4-(N-(4-(4-(3,4-dichlorobenzylamino)phenyl)-2-thiazolyl)-N-methylamino)benzoic acid] showed a melting point of 223 to 225 °C.

Turning to `O=C(O)c1ccc(N(CC2CCCCC2)c2nc(-c3cccc(OCc4ccc(C5CCCCC5)cc4)c3)cs2)cc1` [Example 142, 4-(N-(4-(3-(4-cyclohexylbenzyloxy)phenyl)-2-thiazolyl)-N-cyclohexylmethylamino)benzoic acid], the melting point lay within 195 to 197 °C. Compound `O=C(O)c1ccc(N(CCC2CCCCC2)c2nc(-c3cc(Cl)ccc3OCc3ccc(C(F)(F)F)cc3)cs2)cc1` [Example 177, 4-(N-(4-(5-chloro-2-(4-trifluoromethylbenzyloxy)phenyl)-2-thiazolyl)-N-(2-cyclohexylethyl)amino)benzoic acid] registered a melting point of 170 to 175 °C. Take `CN(CCc1ccc(Cl)c(Cl)c1)c1ccc(-c2csc(N(C)Cc3ccc(C(=O)O)cc3)n2)cc1` [Example 224, 4-((N-(4-(4-(N-(2-(3,4-dichlorophenyl)ethyl)-N-methylamino)phenyl)-2-thiazolyl)-N-methylamino)methyl)benzoic acid]: the melting point lay within 151 to 152 °C.

Consider `CC(OC(=O)OC1CCCCC1)OC(=O)c1ccc(CN(C)c2nc(-c3ccc(OCc4ccc(C5CCCCC5)cc4)cc3)cs2)cc1` (stereo not drawn) [Example 272, 1-cyclohexyloxycarbonyloxyethyl 4-((N-(4-(4-(4-cyclohexylbenzyloxy)phenyl)-2-thiazolyl)-N-methylamino)methyl)benzoate], for which the melting point lay within 75 to 79 °C. The result for `CN(c1ccc(C(=O)O)cc1)c1nc(-c2ccc(OCc3ccc(C4CCCCC4)cc3)cc2)cs1` [Example 22, 4-(N-(4-(4-(4-cyclohexylbenzyloxy)phenyl)-2-thiazolyl)-N-methylamino)benzoic acid] reads 250 °C (dec.); that for `CC(C)N(c1ccc(OCC(=O)O)cc1)c1nc(-c2ccc(NC(=O)c3ccc(C4CCCCC4)cc3)cc2)cs1` [Example 51, (4-(N-(4-(4-(4-cyclohexylbenzoylamino)phenyl)-2-thiazolyl)-N-isopropylamino)phenoxy)acetic acid], 240 °C (dec.). The result for `O=C(O)c1ccc(CNc2nc(-c3cc(Cl)ccc3OCc3ccccc3)cs2)cc1` [Example 162, 4-((4-(2-benzyloxy-5-chlorophenyl)-2-thiazolylamino)methyl)benzoic acid] reads 210 to 211 °C; that for `CN(Cc1ccc(C(=O)O)cc1)c1nc(-c2ccc3[nH]c(-c4ccc(C5CCCCC5)cc4)nc3c2)cs1` [Example 231, 4-((N-(4-(2-(4-cyclohexylphenyl)-1H-benzoimidazol-5-yl)-2-thiazolyl)-N-methylamino)methyl)benzoic acid], 250 °C. `O=C(O)c1cccc(N(CCC2CCCCC2)c2nc(-c3cc(Cl)ccc3OCc3ccccc3)cs2)c1` [Example 172, 3-(N-(4-(2-benzyloxy-5-chlorophenyl)-2-thiazolyl)-N-(2-cyclohexylethyl)amino)benzoic acid] returned a melting point of 170 to 171 °C. Regarding `CC(C)N(c1ccc(C(=O)[O-])cc1)c1nc(-c2ccc(NC(=O)c3ccc(N4CCN(C)CC4)cc3)cc2)cs1.[Na+]` [Example 37, sodium 4-(N-isopropyl-N-(4-(4-(4-(4-methyl-1-piperazinyl)benzoylamino)phenyl)-2-thiazolyl)amino)benzoate], the melting point is 230 °C (dec.). Take `CC(C)N(Cc1ccc(C(=O)O)cc1)c1nc(-c2ccc(OCc3cccc(N4CCCCC4)c3)cc2)cs1` (as salt: hydrochloride) [Example 127, 4-((N-isopropyl-N-(4-(4-(3-piperidinobenzyloxy)phenyl)-2-thiazolyl)amino)methyl)benzoic acid dihydrochloride]: the melting point was in the range of 135 to 140 °C. As to `O=C(O)c1ccc(N(CC2CCCCC2)c2nc(-c3ccc(OCc4ccc(C5CCCCC5)cc4)cc3)cs2)cc1` [Example 25, 4-(N-(4-(4-(4-cyclohexylbenzyloxy)phenyl)-2-thiazolyl)-N-cyclohexylmethylamino)benzoic acid], the melting point is 230 °C (dec.).

Turning to `CN(Cc1ccc(C(=O)O)cc1)c1nc(-c2ccc(OCc3ccc(C4CCCCC4)cc3)cc2)cs1` (as salt: hydrochloride) [Example 252, 4-((N-(4-(4-(4-cyclohexylbenzyloxy)phenyl)-2-thiazolyl)-N-methylamino)methyl)benzoic acid hydrochloride], the melting point was 174 °C (dec.).

As to `CC(C)N(c1ccc(C(=O)O)cc1)c1nc(-c2ccc(OCc3ccc(Cl)c(Cl)c3)cc2)cs1` [Example 96, 4-(N-(4-(4-(3,4-dichlorobenzyloxy)phenyl)-2-thiazolyl)-N-isopropylamino)benzoic acid], the melting point was 236 to 238 °C.

As a reminder, the melting point is the temperature, or range, at which the solid turns liquid.
